Source: patent publication US8153818B2, “Triazolyl phenyl benzenesulfonamides” (ChemoCentryx, Inc., priority 2006, dated 2012)

These molecules were tested against T1, CCR9 (Homo sapiens, UniProt P51686) (assay: CCR9 activity in one of the chemotaxis, binding or calcium mobilization assays). Settings: assay not specified per compound.
T1 construct: chemokine expressing cells (such as THP-1 cells for CCR2 assay or MOLT-4 cells for CCR9 assay); host or cells: MOLT-4
T1 sequence (P51686 1-369): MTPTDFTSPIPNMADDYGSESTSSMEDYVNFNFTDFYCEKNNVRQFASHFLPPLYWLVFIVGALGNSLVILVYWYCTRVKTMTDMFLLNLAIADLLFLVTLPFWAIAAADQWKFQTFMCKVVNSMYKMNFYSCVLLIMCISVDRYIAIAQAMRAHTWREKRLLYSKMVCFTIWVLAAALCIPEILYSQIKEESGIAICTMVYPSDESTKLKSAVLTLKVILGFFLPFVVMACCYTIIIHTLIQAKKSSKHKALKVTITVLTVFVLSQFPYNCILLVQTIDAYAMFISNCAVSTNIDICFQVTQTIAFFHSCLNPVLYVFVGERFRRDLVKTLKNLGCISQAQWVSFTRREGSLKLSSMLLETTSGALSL
Format: cell-based
In short: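 Chemotaxis: THP-1 cells (CCR2, 0.1 nM MCP-1, 90 min) or MOLT-4 cells (CCR9, 50 nM TECK, 150 min) preincubated with compound 15 min RT, migration at 37 °C through 5-μm membrane, CyQUANT read; IC50 by nonlinear regression. Calcium flux: Fluo-4-loaded cells, 0.1 nM MCP-1 or 25 nM TECK. Binding: THP-1, ~50 pM [125I]MCP-1, 3 h, 4 °C.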

IC50 | Compound
< 1000 nM | COCc1nnc(-c2cc(Cl)ccc2NS(=O)(=O)c2ccc(C(C)(C)C)cc2)n1C(C)C [Compound 96, 4-tert-butyl-N-(4-chloro-2-(4-isopropyl-5-(methoxymethyl)-4H-1,2,4-triazol-3-yl)phenyl)benzenesulfonamide]
< 1000 nM | Cn1c(-c2ccccn2)nnc1-c1cc(Cl)ccc1NS(=O)(=O)c1ccc(C(C)(C)C)cc1 [Compound 97, 4-tert-butyl-N-(4-chloro-2-(4-methyl-5-(pyridin-2-yl)-4H-1,2,4-triazol-3-yl)phenyl)benzenesulfonamide]
< 1000 nM | CC(C)n1c(CN(C)C)nnc1-c1cc(Cl)ccc1NS(=O)(=O)c1ccc(C(C)(C)C)cc1 [Compound 98, 4-tert-butyl-N-(4-chloro-2-(5-((dimethylamino)methyl)-4-isopropyl-4H-1,2,4-triazol-3-yl)phenyl)benzenesulfonamide]
< 1000 nM | Cc1nnc(-c2cc(Cl)ccc2NS(=O)(=O)c2ccc(C(C)(C)C)cc2)n1C1CCNC1 (centres unmarked) [Compound 99]
< 1000 nM | Cc1nnc(-c2cc(F)c(F)cc2NS(=O)(=O)c2ccc(C(C)(C)C)cc2)n1C [Compound 100, 4-tert-butyl-N-(2-(4,5-dimethyl-4H-1,2,4-triazol-3-yl)-4,5-difluorophenyl)benzenesulfonamide]
< 1000 nM | Cc1nnc(-c2cc(Cl)ccc2NS(=O)(=O)c2ccc(C(C)(C)C)cc2)n1C1CCOC1 (centres unmarked) [Compound 101]
< 1000 nM | Cn1c(-c2cc(Cl)ccc2NS(=O)(=O)c2ccc(C(C)(C)C)cc2)nnc1C1CCCO1 (centres unmarked) [Compound 102]
< 1000 nM | CC(C)OCc1nnc(-c2cc(Cl)ccc2NS(=O)(=O)c2ccc(C(C)(C)C)cc2)n1C [Compound 103, 4-tert-butyl-N-(4-chloro-2-(5-(isopropoxymethyl)-4-methyl-4H-1,2,4-triazol-3-yl)phenyl)benzenesulfonamide]
< 1000 nM | CC(C)(C)c1ccc(S(=O)(=O)Nc2ccc(Cl)cc2-c2nncn2[C@H]2CCCOC2)cc1 [Compound 104]
< 1000 nM | CCc1nnc(-c2cc(Cl)ccc2NS(=O)(=O)c2ccc(C(C)(C)C)cc2)n1C [Compound 105, 4-tert-butyl-N-(4-chloro-2-(5-ethyl-4-methyl-4H-1,2,4-triazol-3-yl)phenyl)benzenesulfonamide]
< 1000 nM | Cc1nnc(-c2cc(Cl)c(F)cc2NS(=O)(=O)c2ccc(C(C)(C)C)cc2)n1[C@H]1CCNC1 [Compound 106]
< 1000 nM | COCc1nnc(-c2cc(Cl)c(F)cc2NS(=O)(=O)c2ccc(C(C)(C)C)cc2)n1C [Compound 107, 4-tert-butyl-N-(4-chloro-5-fluoro-2-(5-(methoxymethyl)-4-methyl-4H-1,2,4-triazol-3-yl)phenyl)benzenesulfonamide]
< 1000 nM | CC(C)(C)c1ccc(S(=O)(=O)Nc2cc(F)c(Cl)cc2-c2nncn2C2CCCOC2)cc1 (centres unmarked) [Compound 108]
< 1000 nM | CC(C)(C)c1ccc(S(=O)(=O)Nc2cc(F)c(Cl)cc2-c2nncn2[C@H]2CCNC2)cc1 [Compound 109]
< 1000 nM | CCc1nnc(-c2cc(Cl)c(F)cc2NS(=O)(=O)c2ccc(C(C)(C)C)cc2)n1C [Compound 110, 4-tert-butyl-N-(4-chloro-2-(5-ethyl-4-methyl-4H-1,2,4-triazol-3-yl)-5-fluorophenyl)benzenesulfonamide]
< 1000 nM | Cn1c(-c2cocn2)nnc1-c1cc(Cl)c(F)cc1NS(=O)(=O)c1ccc(C(C)(C)C)cc1 [Compound 111]
< 1000 nM | CC(C)(C)c1ccc(S(=O)(=O)Nc2cc(F)c(Cl)cc2-c2nncn2[C@H]2CCCNC2)cc1 [Compound 112]
< 1000 nM | CC(C)(C)c1ccc(S(=O)(=O)Nc2ccc(Cl)cc2-c2nncn2[C@H]2CCCNC2)cc1 [Compound 113]

IC50 | Compound
< 1000 nM | Cc1nnc(-c2cc(Cl)ccc2NS(=O)(=O)c2ccc(C(C)(C)C)cc2)n1[C@H]1CCCNC1 [Compound 114]
< 1000 nM | Cn1c(-c2cc(Cl)c(F)cc2NS(=O)(=O)c2ccc(C(C)(C)C)cc2)nnc1C1CCOC1 (centres unmarked) [Compound 115]
< 1000 nM | Cn1c(-c2cc(Cl)c(F)cc2NS(=O)(=O)c2ccc(C(C)(C)C)cc2)nnc1C1CCOCC1 [Compound 116]
< 1000 nM | Cc1ocnc1-c1nnc(-c2cc(Cl)ccc2NS(=O)(=O)c2ccc(C(C)(C)C)cc2)n1C [Compound 117]
< 1000 nM | CC(C)c1nnc(-c2cc(Cl)ccc2NS(=O)(=O)c2ccc(C(C)(C)C)cc2)n1[C@H]1CCNC1 [Compound 118, (S)-4-tert-butyl-N-(4-chloro-2-(5-isopropyl-4-(pyrrolidin-3-yl)-4H-1,2,4-triazol-3-yl)phenyl)benzenesulfonamide]
< 1000 nM | CCc1nnc(-c2cc(Cl)ccc2NS(=O)(=O)c2ccc(C(C)(C)C)cc2)n1[C@H]1CCNC1 [Compound 119, (S)-4-tert-butyl-N-(4-chloro-2-(5-ethyl-4-(pyrrolidin-3-yl)-4H-1,2,4-triazol-3-yl)phenyl)benzenesulfonamide]
< 1000 nM | CC(C)(C)c1ccc(S(=O)(=O)Nc2cc(F)c(Cl)cc2-c2nncn2C2CCOC2)cc1 (centres unmarked) [Compound 120]
< 1000 nM | Cn1c(CN2CCCC2)nnc1-c1cc(Cl)c(F)cc1NS(=O)(=O)c1ccc(C(C)(C)C)cc1 [Compound 121]
< 1000 nM | Cn1c(CN2CCC2)nnc1-c1cc(Cl)c(F)cc1NS(=O)(=O)c1ccc(C(C)(C)C)cc1 [Compound 122]
< 1000 nM | Cn1c(CO)nnc1-c1cc(Cl)c(F)cc1NS(=O)(=O)c1ccc(C(C)(C)C)cc1 [Compound 123, 4-tert-butyl-N-(4-chloro-5-fluoro-2-(5-(hydroxymethyl)-4-methyl-4H-1,2,4-triazol-3-yl)phenyl)benzenesulfonamide]
< 1000 nM | CC(=O)N1CCC(n2c(C)nnc2-c2cc(Cl)ccc2NS(=O)(=O)c2ccc(C(C)(C)C)cc2)C1 (centres unmarked) [Compound 124]
< 1000 nM | Cc1nnc(-c2cc(Cl)ccc2NS(=O)(=O)c2ccc(C(C)(C)C)cc2)n1CCN(C)C [Compound 125, 4-tert-butyl-N-(4-chloro-2-(4-(2-(dimethylamino)ethyl)-5-methyl-4H-1,2,4-triazol-3-yl)phenyl)benzenesulfonamide]
< 1000 nM | CNCCn1c(C)nnc1-c1cc(Cl)ccc1NS(=O)(=O)c1ccc(C(C)(C)C)cc1 [Compound 126, 4-tert-butyl-N-(4-chloro-2-(5-methyl-4-(2-(methylamino)ethyl)-4H-1,2,4-triazol-3-yl)phenyl)benzenesulfonamide]
< 1000 nM | Cc1nnc(-c2cc(Cl)ccc2NS(=O)(=O)c2ccc(C(C)(C)C)cc2)n1[C@H]1CCNC1 [Compound 127]
< 1000 nM | CCc1nnc(-c2cc(C#N)ccc2NS(=O)(=O)c2ccc(C(C)(C)C)cc2)n1C [Compound 128, 4-tert-butyl-N-(4-cyano-2-(5-ethyl-4-methyl-4H-1,2,4-triazol-3-yl)phenyl)benzenesulfonamide]
< 1000 nM | CCc1nnc(-c2cc(C(N)=O)ccc2NS(=O)(=O)c2ccc(C(C)(C)C)cc2)n1C [Compound 129, 4-(4-tert-butylphenylsulfonamido)-3-(5-ethyl-4-methyl-4H-1,2,4-triazol-3-yl)benzamide]
< 1000 nM | CCc1nnc(-c2cc(C(=O)O)ccc2NS(=O)(=O)c2ccc(C(C)(C)C)cc2)n1C [Compound 130, 4-(4-tert-butylphenylsulfonamido)-3-(5-ethyl-4-methyl-4H-1,2,4-triazol-3-yl)benzoic acid]
